Earlier results, collected in patent publication US7943666B2, “Esters of capsaicin for treating pain” (Trinity Laboratories, Inc., priority 2006, dated 2011).

How the values were obtained:
[1] = rats, i.v. administration
[2] = 540 mg per day orally for 30 days plus topical as needed; arthritis not responding to NSAIDs

SMILES	Time to distribution to brain, spinal cord, liver and blood [1] [min]	Individuals improved [2] [%]
COc1cc(CNC(=O)CCCCC=CC(C)C)ccc1O [capsaicin, 8-methyl-N-vanillyl-6-nonenamide]	≤ 20	–
CCCC/C=C\CCCCCCCC(=O)OCCCCCCCCCCCCCCCC [cetyl myristoleate, cis-9-cetyl myristoleate]	–	63.5
